Laboratory results as given in US6593306B1, “Methods for modulation and inhibition of telomerase” (Board of Regents, The University of Texas Systems, priority 1995, dated 2003).
“And” between values parts separate entries of the source, which are not always exact repeats. Equal entries are not always repeated.

What was measured:
HeLa cell telomerase = biological target: T1, HeLa cell telomerase (Homo sapiens, UniProt O14746); test: HeLa cell telomerase assay; type: biochemical; details: for IC50: HeLa cell telomerase
T1 construct: endogenous in cells; host or cells: HeLa cells (human cervical tumor)

DU145 = test: Growth inhibition (MTT), DU145; type: cell-based; details: Homo sapiens, DU-145, 144 h, 6 days
Experimental: (§1) Exponentially growing cells (1-2×10^3 cells, unless specified otherwise) in 0.1 ml medium were seeded on day 0 in a 96-well microtiter plate. On day 1, 0.1 ml aliquots of medium containing graded concentrations of test analogs were added in duplicate to the cell plates. After incubation at 37° C. in a humidified incubator for 6 days, the plates were centrifuged briefly and 100 μl of the growth medium was removed. Cell cultures were incubated with 50 μl of 3-(4,5-dimethylthiazol-2-yl)-2,5-diphenyl-tetrazolium bromide, (MTT) at a concentration of 1 mg/ml in Dulbecco's phosphate buffered saline (PBS)) for 4 hr at 37° C. The resulting purple formazan precipitate was solubilized with 200 μl of 0.04 N HCl in isopropyl alcohol. Absorbance was monitored in a BioRad Model 3550 Microplate Reader at a test wavelength of 570 nm and a reference wavelength of 630 nm. The absorbance was transferred to a PC 486 computer. The IC50 values were determined by a computer program (EZ-ED50) that fits all the data to the following four-parameter logistic equation: [formula]
(§2) where Amax is the absorbance of control cells, Amin is the absorbance of cells in the presence of highest agent concentration, Y is the observed absorbance, X is the agent concentration, IC50 is the concentration of agent that inhibits the cell growth by 50% of control cells (based on the absorbance) and n is the slope of the curve.
(§3) This is due to the extracellular dephosphorylation of the mono-, di-, or triphosphates by […] or 5′-nucleotidase back to the nucleoside. With this in mind, the inventors used only nucleosides rather than nucleoside triphosphates in these studies. Cultured tumor cells were incubated with selected nucleosides at graded concentrations for 6 days and the growth inhibition was determined by the standard MTT assay.

MCF-7 = test: Growth inhibition (MTT), MCF-7; type: cell-based; details: Homo sapiens, MCF7, 144 h, 6 days
Experimental: as §1, §2, §3

PC3 = test: Growth inhibition (MTT), PC3; type: cell-based; details: Homo sapiens, PC-3, 144 h, 6 days
Experimental: as §1, §2, §3

BT-20 = test: Growth inhibition (MTT), BT-20; type: cell-based; details: Homo sapiens, BT-20, 144 h, 6 days
Experimental: as §1, §2, §3

Raji = test: Growth inhibition (MTT), Raji; type: cell-based; details: Homo sapiens, 144 h, 6 days
Experimental: as §1, §2, §3

SKBR3 = test: Growth inhibition (MTT), SKBR3; type: cell-based; details: Homo sapiens, SK-BR-3, 144 h, 6 days
Experimental: as §1, §2, §3

MDA-231 = test: Growth inhibition (MTT), MDA-231; type: cell-based; details: Homo sapiens, MDA-MB-231, 144 h, 6 days
Experimental: as §1, §2, §3

human cancer telomerase = biological target: T2, human cancer telomerase (Homo sapiens, UniProt O14746); test: Nucleoside triphosphate as telomerase substrate, dGTP replaced in modified reaction; type: biochemical; details: for incorporation into telomeric ladders, replacing dGTP: modified assay
T2 construct: endogenous in cells; host or cells: human cancer cells

human telomerase = biological target: T3, human telomerase (Homo sapiens, UniProt O14746); test: Cell-free telomerase inhibition, conventional or modified assay not stated; type: biochemical; details: for IC50: Summary values, assay variant not stated, read-out: IC50
T3 construct: telomerase in S100 extracts of transformed human fetal kidney tumor 293 cells (a processive telomerase); endogenous in cells; host or cells: human cells, (S100 extract)
Experimental: Selected nucleoside triphosphates were tested in one or both of the “conventional” or “modified” telomerase assays described in Methods using the human processive and the CHO non-processive telomerases. Initially, three chain-terminators were selected: 2′,3′-dideoxythymidine triphosphate (ddTTP), 3′-fluoro-2′,3′-dideoxythymidine triphosphate (F-ddTTP), and 3′-azido-2′-, 3′-dideoxythymidine triphosphate (AZ-ddTTP) as prototype agents to investigate whether they could inhibit telomerase activity. The three compounds are dTTP analogs without a 3′-OH group for subsequent chain elongation. They may either incorporate into the telomere sequence and terminate further chain elongation or compete directly with dTTP for the substrate binding site in the telomerase reaction. In either case, telomerase activity is inhibited.

[1] = biological target: T4, human 293 cell telomerase (Homo sapiens, UniProt O14746); test: Conventional telomerase assay (32P-dGTP as radiolabel substrate); type: biochemical; details: for Inhibition of 293 Telomerase, Conventional Assay *dGTP: up to 2 mM
T4 construct: with 20 μl of S100 enzyme extract; endogenous in cells; host or cells: 293 cells (transformed human embryonic kidney), S100 extract
Experimental: (§4) Telomerase was prepared from transformed human embryonic kidney 293 cell line. Human embryonic kidney 293 cells were grown in Joklik's modified MEM niedium (Sigma, St Louis, Mo.) supplemented with 5% fetal bovine serum at 37° C. in a humidified atmosphere with 5% CO2. The cells were subcultured at 1-2×10^5 cells/ml twice a week. When the cells grew to approximately 1×10^6 cells/ml, the cells (˜2×10^9 cells) were centrifuged and transferred into polypropylene centrifuge (50 ml) tubes and kept on ice. The cells were then centrifuged in a (Beckman GS-6R) centrifuge at 1200 RPM for 10 minutes at 4° C., and resuspended in PBS. The washed cells were resuspended in 15 ml Hypobuffer Mix (10 mM HEPES, pH 8.0, 3 mM KCl, 1 mM MgCl2, 1 mM dithiothreitol, 1 μM leupeptin, 0.1 mM PMSF, 10 μM pepstatin, 0.83 μg/ml chymostatin, 0.83 μg/ml antipain, and 43.2 units/ml RNase Guard) and centrifuged. The cell pellets were resuspended in 0.75×volumes Hypobuffer [Hypobuffer Mix+40 units/ml RNase Guard (Pharmacia, N.J.) to allow the cells to swell. The cell suspensions were homogenized to allow the telomerase to “leak” into the cytosolic fraction. The lysate was then poured into new, autoclaved, 3 ml polyallomer ultracentrifuge tubes and centrifuged at 100,000×g for 1 hour at 4° C. A top lipid layer was carefully removed and discarded, and the supernatant was collected. 1/50 of the volume of 5 M NaCl was added to the clear supernatant fluid to achieve a final concentration of 0.1 M. Sterile glycerol was added until the final glycerol concentration was 20%. The enzyme solution was aliquoted into Eppendorf tubes and quickly frozen in liquid nitrogen and stored at −70° C.
The assay is based on the ability of the telomerase enzyme in the S100 fractions to recognize an 18-base DNA primer with the DNA sequence (TTAGGG)3. DNA polymerization initiates from the 3′-OH group of the oligonucleotide. By reading from its complementary internal RNA template, telomerase adds a repeated set of 5′-TTAGGG-3′ to the original 18-base primer. Non-synchronous “starts” and “terminations” among the different enzyme complexes result in a degenerative set of different length DNA primers occurring in 6-base increments. Incorporation of [α-^32P]dGTP at the guanine positions of the 5′-TTAGGG-3′ sequence allows the newly synthesized DNA fragments to be visualized by autoradiography. The resulting image forms the characteristic “ladder” structure that is used to identify telomerase activity. The images are scanned using a phosphoimager or laser densitometer (Molecular Dynamics, Sunnyvale, Calif.). Comparisons of the total volumes under the corresponding peaks are used to quantitate the total amount of [α-^32P] incorporated in the primer extension reaction.
The telomerase assay was initiated by mixing 20 μl of 2×reaction mix (100 mM Tris-OAc, pH 8.5, 100 mM KOAc, 10 mM β-mercaptoethanol, 2 mM spermidine, 2 mM MgCl2, 2 mM dATP, 2 mM dTTP, 2 μM oligo primer, potential inhibitors of interest at the appropriate concentration, and 50 μCi [α^32-P]dGTP) with 20 μl of S100 enzyme extract. The reaction mixture was then incubated at 30° C. for 1 hour. The reaction was stopped by incubating sequentially with 50 μl of the stop solution (10 mM Tris pH 7.5, 20 mM EDTA, 0.1 mg/ml RNase A) and 50 μl of deproteinase solution (10 mM Tris pH 7.5, 0.5% SDS, 0.3 mg/ml Proteinase K). The mixture was extracted with 50% phenol/50% chloroform (v/v). The DNA was then precipitated by adding 2.5×volumes of cold EtOH and letting it stand overnight at −70° C. The DNAs were separated on an 8% polyacrylamide/7M urea denaturing gel at 1600 V for 1.5 hours. The gel was dried and exposed to Kodak XAR-5 film to gel in −70° C. Typical autoradiographic exposures required 3-14 days.

[2] = biological target: T4, human 293 cell telomerase; test: Modified telomerase assay (32P-dATP as radiolabeled substrate); type: biochemical
Experimental: as §4
In the conventional telomerase assay, the concentrations of both non-radiolabeled nucleotides, dATP and dTTP, are 1 mM, and the concentration of the radiolabeled [^32P]dGTP is 1.56 μM. Because of the high concentration of dATP and dTTP, the standard assay may not be suitable for determining the potential telomerase inhibition of any “Adenine or Thymine” analogs. […] All other chemicals and reaction conditions are identical to the conventional assay.

T4 sequence (O14746 whole entry): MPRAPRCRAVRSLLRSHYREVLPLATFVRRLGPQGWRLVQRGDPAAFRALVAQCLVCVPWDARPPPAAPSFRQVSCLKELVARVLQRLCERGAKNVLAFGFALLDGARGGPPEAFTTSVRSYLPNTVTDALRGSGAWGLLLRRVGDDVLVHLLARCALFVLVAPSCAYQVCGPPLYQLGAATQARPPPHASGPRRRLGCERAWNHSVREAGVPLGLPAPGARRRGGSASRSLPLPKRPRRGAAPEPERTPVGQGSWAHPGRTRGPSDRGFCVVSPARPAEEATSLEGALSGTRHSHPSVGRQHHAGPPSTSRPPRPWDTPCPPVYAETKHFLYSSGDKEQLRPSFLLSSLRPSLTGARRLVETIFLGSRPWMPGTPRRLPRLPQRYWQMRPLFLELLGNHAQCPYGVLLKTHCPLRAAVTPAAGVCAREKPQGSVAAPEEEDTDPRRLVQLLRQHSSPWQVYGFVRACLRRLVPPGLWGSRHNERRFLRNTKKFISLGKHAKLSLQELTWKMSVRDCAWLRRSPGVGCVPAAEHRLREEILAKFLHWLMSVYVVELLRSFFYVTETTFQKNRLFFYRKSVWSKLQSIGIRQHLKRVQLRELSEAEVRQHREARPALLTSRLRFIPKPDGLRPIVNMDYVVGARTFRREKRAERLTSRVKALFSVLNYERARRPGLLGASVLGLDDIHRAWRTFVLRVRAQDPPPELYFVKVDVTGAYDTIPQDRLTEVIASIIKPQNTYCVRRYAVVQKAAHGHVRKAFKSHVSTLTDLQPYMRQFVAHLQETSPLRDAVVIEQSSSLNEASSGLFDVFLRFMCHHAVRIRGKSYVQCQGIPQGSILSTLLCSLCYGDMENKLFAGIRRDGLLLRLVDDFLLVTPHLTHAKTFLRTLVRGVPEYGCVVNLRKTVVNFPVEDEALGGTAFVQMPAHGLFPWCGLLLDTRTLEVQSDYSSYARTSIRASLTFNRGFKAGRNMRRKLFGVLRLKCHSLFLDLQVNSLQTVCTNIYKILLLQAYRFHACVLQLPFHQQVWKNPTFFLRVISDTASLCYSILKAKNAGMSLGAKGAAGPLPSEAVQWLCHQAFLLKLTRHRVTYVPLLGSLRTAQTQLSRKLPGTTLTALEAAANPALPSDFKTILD
T4 sequence (O60832 whole entry partner): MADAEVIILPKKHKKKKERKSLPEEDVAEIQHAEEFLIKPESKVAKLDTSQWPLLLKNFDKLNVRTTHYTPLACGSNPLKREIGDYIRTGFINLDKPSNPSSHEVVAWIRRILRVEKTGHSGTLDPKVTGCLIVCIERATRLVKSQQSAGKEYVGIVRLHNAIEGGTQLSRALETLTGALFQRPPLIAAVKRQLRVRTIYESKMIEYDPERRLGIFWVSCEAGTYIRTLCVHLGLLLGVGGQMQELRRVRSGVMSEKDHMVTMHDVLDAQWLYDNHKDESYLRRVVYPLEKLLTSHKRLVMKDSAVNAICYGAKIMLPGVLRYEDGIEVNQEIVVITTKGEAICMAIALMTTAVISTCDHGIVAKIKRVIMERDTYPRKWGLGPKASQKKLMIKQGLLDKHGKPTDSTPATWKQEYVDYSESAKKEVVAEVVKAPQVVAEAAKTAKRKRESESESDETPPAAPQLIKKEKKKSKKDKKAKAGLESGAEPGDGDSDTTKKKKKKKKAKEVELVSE
T4 sequence (Q9NPE3 whole entry partner): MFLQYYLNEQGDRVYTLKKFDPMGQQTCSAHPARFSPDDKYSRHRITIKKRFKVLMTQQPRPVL
T4 sequence (Q9NX24 whole entry partner): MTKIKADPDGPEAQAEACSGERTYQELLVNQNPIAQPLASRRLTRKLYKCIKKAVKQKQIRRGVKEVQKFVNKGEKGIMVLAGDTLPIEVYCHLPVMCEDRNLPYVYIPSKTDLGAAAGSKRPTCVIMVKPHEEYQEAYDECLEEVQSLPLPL
T4 sequence (Q9NY12 whole entry partner): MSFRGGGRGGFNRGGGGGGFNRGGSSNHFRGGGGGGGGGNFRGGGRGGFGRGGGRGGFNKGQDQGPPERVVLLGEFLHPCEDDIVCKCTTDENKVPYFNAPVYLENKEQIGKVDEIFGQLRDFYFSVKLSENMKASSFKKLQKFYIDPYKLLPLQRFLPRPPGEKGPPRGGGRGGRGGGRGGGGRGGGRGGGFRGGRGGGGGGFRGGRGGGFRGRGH
T2 sequence (O14746 whole entry): as the sequence (O14746 whole entry) above
T2 sequence (O60832 whole entry partner): as the sequence (O60832 whole entry partner) above
T2 sequence (Q9NPE3 whole entry partner): as the sequence (Q9NPE3 whole entry partner) above
T2 sequence (Q9NX24 whole entry partner): as the sequence (Q9NX24 whole entry partner) above
T2 sequence (Q9NY12 whole entry partner): as the sequence (Q9NY12 whole entry partner) above
T1 sequence (O14746 whole entry): as the sequence (O14746 whole entry) above
T1 sequence (O60832 whole entry partner): as the sequence (O60832 whole entry partner) above
T1 sequence (Q9NPE3 whole entry partner): as the sequence (Q9NPE3 whole entry partner) above
T1 sequence (Q9NX24 whole entry partner): as the sequence (Q9NX24 whole entry partner) above
T1 sequence (Q9NY12 whole entry partner): as the sequence (Q9NY12 whole entry partner) above
T3 sequence (O14746 whole entry): as the sequence (O14746 whole entry) above
T3 sequence (O60832 whole entry partner): as the sequence (O60832 whole entry partner) above
T3 sequence (Q9NPE3 whole entry partner): as the sequence (Q9NPE3 whole entry partner) above
T3 sequence (Q9NX24 whole entry partner): as the sequence (Q9NX24 whole entry partner) above
T3 sequence (Q9NY12 whole entry partner): as the sequence (Q9NY12 whole entry partner) above

SMILES: COc1nc(N)nc2c1ccn2[C@H]1C[C@H](O)[C@@H](CO)O1 [6-methoxy-7-deaza-2′-deoxyguanosine]
- IC50 (HeLa cell telomerase): 4.9 µM

SMILES: Nc1nc2c(c(=S)[nH]1)CC=N2 [6-thio-7-deaza guanine]
- IC50 (DU145): > 100 µM
- IC50 (MCF-7): 84.2 µM
- IC50 (PC3): 120 µM
- IC50 (BT-20): 258 µM
- IC50 (Raji): 84.1 µM
- IC50 (SKBR3): 74 µM
- IC50 (MDA-231): > 50 µM

SMILES: Cn1c(N)nc2c(ccn2[C@H]2C[C@H](O)[C@@H](CO)O2)c1=O [Compound 5, 1-N-methyl-7-deaza-2′-deoxyguanosine]
- IC50 (DU145): > 50 µM
- IC50 (MCF-7): 57.5 µM
- IC50 (PC3): 93.4 µM
- IC50 (BT-20): 60.3 µM
- IC50 (Raji): 43.4 µM
- IC50 (MDA-231): > 50 µM
- IC50 (HeLa cell telomerase): 159 µM

SMILES: COc1nc(N)nc2c1ccn2[C@H]1C[C@H](O)[C@@H](COP(=O)(O)OP(=O)(O)OP(=O)(O)O)O1 [Compound 6, 6-Methoxy-7-deaza-2′-deoxyguanosine Triphosphate]
- IC50 (HeLa cell telomerase): 4.9 µM

SMILES: Cn1c(N)nc2c(ccn2[C@H]2C[C@H](O)[C@@H](COP(=O)(O)OP(=O)(O)OP(=O)(O)O)O2)c1=O [Compound 7, 1-Methyl-7-deaza-2′-deoxyguanosine Triphosphate]
- incorporation into telomeric ladders, replacing dGTP (human cancer telomerase; 1 mM dTTP, 3.12 μM [α-32P]dATP): incorporation
- IC50 (HeLa cell telomerase): 159 µM

SMILES: CSc1nc(N)nc2c1ccn2[C@H]1C[C@H](O)[C@@H](COP(=O)(O)OP(=O)(O)OP(=O)(O)O)O1 [Compound 9, 6-Thiomethyl-7-deaza-2′-deoxyguanosine Triphosphate]
- inhibition in a HeLa cell telomerase assay (HeLa cell telomerase; up to 62.5 μM): no inhibition

SMILES: Nc1nc2c(ncn2[C@H]2C[C@H](O)[C@@H](COP(O)(=S)OP(=O)(O)OP(=O)(O)O)O2)c(=O)[nH]1 (stereo partly drawn) [NA013, 2′-Deoxyguanosine-5′-O-(1-thiotriphosphate)]
- incorporation into telomeric ladders, replacing dGTP (human cancer telomerase; 1 mM dTTP, 3.12 μM [α-32P]dATP): incorporated
- IC50 (human telomerase): 81.5 µM
- remaining activity at 125 µM ([1]; 0.125 mM, read-out: % of Control): 75%
- remaining activity at 250 µM ([1]; 0.25 mM, read-out: % of Control): 47%
- remaining activity at 500 µM ([1]; 0.5 mM, read-out: % of Control): 0%
- remaining activity at 1000 µM ([1]; 1.0 mM, read-out: % of Control): 0%
- remaining activity at 2000 µM ([1]; 2.0 mM, read-out: % of Control): 0%
- IC50 ([1]; 293 cell telomerase): < 125 µM
- Inhibition of 293 Telomerase, Conventional Assay *dGTP [1]: concentration-dependent inhibition

SMILES: Nc1nc2c(ccn2[C@H]2C[C@H](O)[C@@H](COP(=O)(O)OP(=O)(O)OP(=O)(O)O)O2)c(=O)[nH]1 [NA022, 7-Deaza-2′-Deoxyguanosine-5′-Triphosphate]
- Substrate of 293 Telomerase (human cancer telomerase; dGTP analog): Is a substrate Produces short telomere Substrate Inhibition
- concentration above which there was no activity (human cancer telomerase; dGTP replaced, 1 mM dTTP, 3.12 μM [α-32P]dATP): > 1.5 mM
- IC50 (human telomerase): 6.8 µM
- times more potent than AZT-TP (human telomerase; from IC50 values): at least 50 times
- remaining activity at 1 µM ([1]; 1.0 μM, read-out: % of Control): 99%
- remaining activity at 2.5 µM ([1]; 2.5 μM, read-out: % of Control): 114%
- remaining activity at 5 µM ([1]; 5.0 μM, read-out: % of Control): 67%
- remaining activity at 7.5 µM ([1]; 7.5 μM, read-out: % of Control): 81%
- remaining activity at 10 µM ([1]; 10 μM, read-out: % of Control): 24%
- remaining activity at 25 µM ([1]; 25 μM, read-out: % of Control): 27%
- remaining activity at 50 µM ([1]; 50 μM, read-out: % of Control): 18%
- remaining activity at 75 µM ([1]; 75 μM, read-out: % of Control): 0%
- remaining activity at 100 µM ([1]; 100 μM, read-out: % of Control): 0%
- IC50 ([1]; [α-32P]dGTP 1.56 μM, TTP and dATP 1 mM): 11 µM
- Inhibition of 293 Telomerase, Conventional Assay *dGTP [1]: concentration-dependent inhibition
- IC50 ([2]; [α-32P]dATP 3.12 μM, TTP and dGTP 1 mM): 56 µM and < 100 µM
- Inhibition of 293 cell telomerase, modified assay ([2]; competing radioactive nucleotide 3.12 μM [α32P]dATP): concentration-dependent inhibition
